These results are taken from PubChem BioAssay (NCI).

Common to all, as to test: NCI anticancer screen, dose series, 48 h
The test system of assay [1] is A498 renal.
The test system of assay [2] is HCC-2998 colon.
Assay [3] concerns HCT-116 colon.
In assay [4] the test system is ACHN renal.
In assay [5] the test system is OVCAR-8 ovarian.
Assay [6] has as its system SN12C renal.
The test system of assay [7] is OVCAR-5 ovarian.
Assay [8] relates to TK-10 renal.
Assay [9] concerns RXF 393 renal.
For assay [10], the system named is PC-3 prostate.
Assay [11] concerns MDA-MB-435.

SMILES strings stand for the structures.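 Cells were grown in 96-well plates and exposed to each compound for 48 hours at five concentrations; endpoints were interpolated linearly between bracketing concentrations, or set to the highest concentration if not reached. TGI marks complete inhibition of growth.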 Where only a bound is given, the exact number is not on record here.

Turning to `Cc1ccc(Sc2ccccc2[N+](=O)[O-])cc1`, the TGI in assay [1] is over 100 µM; in [2], 68.3 µM; in [3], over 100 µM; in assay [4], over 100 µM; in [5] it was over 100 µM; in assay [6] it was over 100 µM. The TGI in [7] was over 100 µM; in assay [8], over 100 µM; in assay [9] it was 59.8 µM.

`O=C(Sc1c(-c2ccccc2)c(=O)n(-c2ccccc2)c(=S)n1-c1ccccc1)c1cccs1`: the TGI in assay [10], in assay [3], in [4], in assay [5], in assay [6] and in assay [7] was over 100 µM throughout. The TGI in assay [8] and in assay [11] was over 100 µM in each case.

As for `Cc1ccc(S(=O)(=O)NC(=O)NC(CCCCN=C(N)N)C(=O)O)cc1` (stereo unspecified), the TGI in assay [10], in assay [3], in [4], in assay [5], in [6] and in assay [8] was over 100 µM throughout. In assay [9], this compound had a TGI of over 100 µM.

On to `CNc1ccc2ncccc2c1[N+](=O)[O-]`, for which the TGI in assay [1], in assay [2], in assay [3], in assay [4], in assay [5] and in [6] was over 100 µM throughout. In addition, the TGI in assay [7], in assay [8] and in [9] was over 100 µM in each case.

For the compound `CC(=O)OC1C2CCC3C(C)(O)C4CC(O)C(C)(C)C4(O)C(O)CC13CC2(C)O` (stereo unspecified), the TGI in assay [10], in [1], in [2], in [3], in assay [4] and in assay [5] was over 100 µM throughout. In addition, the TGI in assay [6], in assay [7] and in assay [8] was over 100 µM throughout.

`CCOC(=O)c1c(C)nc2c(c1-c1cn(-c3ccccc3)nc1-c1ccccc1)C(=O)c1ccccc1-2`: the TGI in [10], in assay [1], in assay [3], in assay [5], in assay [6] and in assay [7] was over 100 µM each time. Also, the TGI in [8], in [11] and in assay [9] was over 100 µM each time.

As for `CCC(COC(=O)CC[C@@H](NC(=O)C(C)NC(=O)C(C)OC1C(O)C(CO)OC(OCc2ccccc2)C1NC(C)=O)C(N)=O)NC1c2ccccc2Nc2cccc([N+](=O)[O-])c21` (stereo partly specified), the TGI in [2], in assay [3], in [4], in assay [5], in assay [6] and in [7] was over 100 µM each time. Also, the TGI in assay [8] is over 100 µM; in assay [9], 84.6 µM.

Turning to `CN(C)CCNC(=O)c1cccc2cc3cc(O)ccc3nc12`, the TGI came out at 2.42 µM in assay [1]; 8.3 µM in [2]; 5.73 µM in assay [3]; 3.34 µM in assay [5]; 4.65 µM in assay [6]; 4.32 µM in [7]. In assay [9], this compound registered a TGI of 10 µM.

For `Cc1ccc(-c2nnc(CCCCCCCCc3nnc(-c4ccc(C)cc4O)n3N)n2N)c(O)c1`, the TGI in assay [1], in assay [2], in assay [3], in [4], in [5] and in [6] was over 100 µM each time. The TGI in assay [7], in assay [8] and in assay [11] was over 100 µM in each case.

Consider `CC(C)OP(=O)(OC(C)C)C1=NN(c2ccc([N+](=O)[O-])cc2)C(P(=O)(OC(C)C)OC(C)C)=NN1c1ccc([N+](=O)[O-])cc1`, for which the TGI in assay [2], in assay [3], in [4], in assay [5], in assay [6] and in assay [7] was over 100 µM throughout. The TGI in assay [8] and in assay [9] was over 100 µM throughout.

Turning to `CCCc1c(C(=O)OCC)[nH]c(-c2ccc(-c3[nH]c(C(=O)OCC)c(CCC)c3C(=O)OCC)s2)c1C(=O)OCC`, the TGI in [1], in assay [2], in assay [3], in assay [4], in assay [5] and in assay [6] was over 100 µM throughout. Moreover, the results for the TGI in assay [7], in assay [8] and in assay [9] were over 100 µM, over 100 µM and 28.5 µM, respectively.

For `CC(=O)NC(CCCCN)C(=O)NCc1ccccc1` (stereo unspecified), the TGI in assay [1], in assay [2], in assay [3], in assay [4], in assay [5] and in assay [6] was over 100 µM throughout. Moreover, the TGI in assay [7], in assay [8] and in assay [9] was over 100 µM throughout.

Regarding `COC(=O)CC(C(C(=O)OCc1ccccc1)C(C)O)N1C(=O)OC(c2ccccc2)C1c1ccccc1` (stereo unspecified), the TGI in [1], in assay [2], in assay [3], in assay [4], in [5] and in assay [6] was over 100 µM in each case. Besides, the TGI in assay [8] and in [9] was over 100 µM each time.

Turning to `CC1(C)C2CCC3(OCCO3)C1C(O)C2` (stereo unspecified), the TGI in [1], in assay [2], in [3], in assay [4], in assay [5] and in assay [7] was over 100 µM throughout. Besides, the TGI in assay [8] and in [9] was over 100 µM each time.

As for `N#C/C(=C\c1cccc(O)c1O)C(N)=O`, the TGI is over 100 µM in assay [1]; 46.9 µM in [2]; over 100 µM in assay [3]; over 100 µM in [4]; over 100 µM in [5]; over 100 µM in assay [6]. Besides, the TGI in assay [7] was over 100 µM; in [8], over 100 µM; in assay [9], 28 µM.
